The source of these data is US9708306B2, “Benzimidazole derivatives and preparation process and pharmaceutical uses thereof” (WUHAN LL SCIENCE AND TECHNOLOGY DEVELOPMENT CO., LTD, priority 2015, dated 2017).

For test [1], the system named is renovascular hypertensive rats. The test is described as follows: Effect on reducing blood pressure of renovascular hypertensive rats by single oral administration. In kind it is in vivo, Wistar rats. Particulars: for change in vivo at 0.5 mg/kg / inhibition in vivo at 0.5 mg/kg / change in vivo at 1 mg/kg / inhibition in vivo at 1 mg/kg / change in vivo at 2 mg/kg / inhibition in vivo at 2 mg/kg: Rattus norvegicus, single oral administration; for change in vivo at 0.5 mg/kg / change in vivo at 1 mg/kg / change in vivo at 2 mg/kg: RHR, read-out: Variations on heart rate; for inhibition in vivo at 0.5 mg/kg / inhibition in vivo at 1 mg/kg / inhibition in vivo at 2 mg/kg: two-kidney one-clip RHR, measured 1-10 h, read-out: Maximum blood pressure reduction.

The subject of another test is normal rats. The test is described as follows: Effect on blood pressure of normal rats by single oral administration. The class given is in vivo, Wistar rats. Conditions: Rattus norvegicus, po, single, normal rats; for inhibition in vivo at 0.5 mg/kg / inhibition in vivo at 1 mg/kg / inhibition in vivo at 2 mg/kg: 8 h, read-out: blood pressure reduction at 8 h after the administration; for inhibition in vivo at 0.5 mg/kg / change in vivo at 0.5 mg/kg: 0.5 mg/kg p.o.; for inhibition in vivo at 1 mg/kg / change in vivo at 1 mg/kg: 1.0 mg/kg p.o.; for inhibition in vivo at 2 mg/kg / change in vivo at 2 mg/kg: 2.0 mg/kg p.o.; for change in vivo at 0.5 mg/kg / change in vivo at 1 mg/kg / change in vivo at 2 mg/kg: read-out: variations on heart rate.

For `CCOc1nc2cccc(C(=O)OCc3c(C)no[n+]3[O-])c2n1Cc1ccc(-c2ccccc2-c2noc(=O)[nH]2)cc1` [QR01025], in test [1], the change in vivo at 0.5 mg/kg is 4 ± 6%, the inhibition in vivo at 0.5 mg/kg worked out at 18 ± 3.4%, the change in vivo at 1 mg/kg is -7 ± 5% and the inhibition in vivo at 1 mg/kg was determined as 22 ± 4.5%. For the same compound, in test [1], the change in vivo at 2 mg/kg is -7 ± 3% and the inhibition in vivo at 2 mg/kg was found to be 28 ± 3.2%. In the test on normal rats, the inhibition in vivo at 0.5 mg/kg was 3.3 ± 3.2%, the inhibition in vivo at 1 mg/kg came to 6.2 ± 3.8%, the inhibition in vivo at 2 mg/kg amounted to 3.7 ± 4.1% and the change in vivo at 0.5 mg/kg is -2 ± 3%. Besides, in the test with normal rats, the change in vivo at 1 mg/kg was found to be 6% and the change in vivo at 2 mg/kg is -3 ± 4%.

In the case of `CCOc1nc2cccc(C(=O)OC3COC4C(O[N+](=O)[O-])COC34)c2n1Cc1ccc(-c2ccccc2-c2noc(=O)[nH]2)cc1` (stereo not shown) [QR01007], in test [1], the change in vivo at 0.5 mg/kg was -3 ± 1%, the inhibition in vivo at 0.5 mg/kg was 10 ± 1.5%, the change in vivo at 1 mg/kg was -8 ± 3% and the inhibition in vivo at 1 mg/kg worked out at 12 ± 2%. Also, in test [1], the change in vivo at 2 mg/kg was -5 ± 2% and the inhibition in vivo at 2 mg/kg came out at 18 ± 3.5%. Besides, in the test on normal rats, the inhibition in vivo at 0.5 mg/kg was determined as 3.5 ± 3.4%, the inhibition in vivo at 1 mg/kg worked out at 2.5 ± 4.6%, the inhibition in vivo at 2 mg/kg is 3.7 ± 4.3% and the change in vivo at 0.5 mg/kg is -3 ± 2%. Besides, in the test on normal rats, the change in vivo at 1 mg/kg is -7 ± 2% and the change in vivo at 2 mg/kg was 5%.

Turning to `CCOc1nc2cccc(C(=O)OCCO[N+](=O)[O-])c2n1Cc1ccc(-c2ccccc2-c2noc(=O)[nH]2)cc1` [QR01016], in test [1], the change in vivo at 0.5 mg/kg stood at 1%, the inhibition in vivo at 0.5 mg/kg came out at 11 ± 3.1%, the change in vivo at 1 mg/kg turned out to be 5% and the inhibition in vivo at 1 mg/kg is 12 ± 9.2%. In addition, in test [1], the change in vivo at 2 mg/kg worked out at 4% and the inhibition in vivo at 2 mg/kg came to 15 ± 6.5%. In the test on normal rats, the inhibition in vivo at 0.5 mg/kg came to 3.6 ± 2.8%, the inhibition in vivo at 1 mg/kg came out at 4.2 ± 5.7%, the inhibition in vivo at 2 mg/kg is 5.9 ± 3.2% and the change in vivo at 0.5 mg/kg turned out to be 1%. In the test with normal rats, the change in vivo at 1 mg/kg was determined as 5% and the change in vivo at 2 mg/kg came to 3%.

Turning to `CCOc1nc2cccc(C(=O)OCCCCOc3no[n+]([O-])c3S(=O)(=O)c3ccccc3)c2n1Cc1ccc(-c2ccccc2-c2noc(=O)[nH]2)cc1` [QR01011], in test [1], the change in vivo at 0.5 mg/kg was -5 ± 3%, the inhibition in vivo at 0.5 mg/kg amounted to 16 ± 4.3%, the change in vivo at 1 mg/kg was -8 ± 6% and the inhibition in vivo at 1 mg/kg is 28 ± 1.3%. Moreover, in test [1], the change in vivo at 2 mg/kg was -6 ± 4% and the inhibition in vivo at 2 mg/kg amounted to 29 ± 4%. The “blood pressure reduction effect compared with Azilsartan medoxomil” value in test [1] (renal artery-ligated rat, result in words) was “close to that of Azilsartan medoxomil”. In the test with normal rats, the inhibition in vivo at 0.5 mg/kg stood at 2.7 ± 3.6%, the inhibition in vivo at 1 mg/kg was found to be 3.8 ± 2.1%, the inhibition in vivo at 2 mg/kg came to 3.7 ± 5% and the change in vivo at 0.5 mg/kg was -3 ± 5%. Besides, in the test on normal rats, the change in vivo at 1 mg/kg was determined as 6% and the change in vivo at 2 mg/kg was -5 ± 3%.

`CCOc1nc2cccc(C(=O)OCCOC(C)=O)c2n1Cc1ccc(-c2ccccc2-c2noc(=O)[nH]2)cc1` [QR01004]: in test [1], the change in vivo at 0.5 mg/kg stood at 0%, the inhibition in vivo at 0.5 mg/kg is 7 ± 1.2%, the change in vivo at 1 mg/kg was -5 ± 3% and the inhibition in vivo at 1 mg/kg came to 10 ± 2.3%. Moreover, in test [1], the change in vivo at 2 mg/kg is -3 ± 1% and the inhibition in vivo at 2 mg/kg turned out to be 12 ± 3.4%. In addition, in the test with normal rats, the inhibition in vivo at 0.5 mg/kg worked out at 7.5 ± 1.4%, the inhibition in vivo at 1 mg/kg was determined as 6.7 ± 1.3%, the inhibition in vivo at 2 mg/kg was found to be 5.7 ± 2.6% and the change in vivo at 0.5 mg/kg was -1 ± 2%. In the test on normal rats, the change in vivo at 1 mg/kg is -2 ± 1% and the change in vivo at 2 mg/kg was found to be 3%.
